Data reported in paper PMC12526058, “1,2,4-Thiadiazolidin-3,5-Diones as Inhibitors of Cysteine Proteases” (Molecules, 2025).
Several values for one entry are separate records, joined by “and”; a condition that tells them apart may be missing. Equal values may be shown once. Entries after “also recorded” stand apart in the source; their conditions may differ.

Legend:
[1] = molecular target: T1, Papain (Carica papaya, UniProt P00784); assay: Papain inhibition, IC50 (Z-Phe-Arg-MCA substrate, 10 min pre-incubation); assay type: biochemical; details: for IC50 / IC50 for inhibition of Papain: 30 °C, 10 min pre-incubation, 100 mM sodium phosphate, 1 mM EDTA, pH 6.0, Z-Phe-Arg-MCA, Papain 120 nM
T1 construct: purchased Sigma
T1 sequence (P00784 134-345): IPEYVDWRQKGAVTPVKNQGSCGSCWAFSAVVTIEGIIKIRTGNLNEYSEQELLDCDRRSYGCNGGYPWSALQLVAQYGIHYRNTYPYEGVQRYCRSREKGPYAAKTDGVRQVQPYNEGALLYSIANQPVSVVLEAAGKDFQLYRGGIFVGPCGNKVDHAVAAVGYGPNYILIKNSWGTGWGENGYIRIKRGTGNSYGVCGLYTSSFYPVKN
Method: Papain and Bromelain were purchased from Sigma. Papain was previously activated at 25 °C in a degassed 100 mM sodium phosphate, 1 mM EDTA, pH 6.0 buffer containing 5 mM DTT (dithiothreitol) for 10 min, as previously described. To remove the DTT excess, a 1 mL solution of activated Papain was loaded on a 3 mL syringe with 1 mL Sephadex G25 size exclusion resin (Amersham Pharmacia, Amersham, UK). The enzyme was eluted with the same assay buffer, and its activity was monitored using Z-Phe-Arg-MCA as the substrate.
The activities of Cathepsin L and Papain were assessed using Z-Phe-Arg-MCA.

[2] = molecular target: SARS-CoV-2 3CLpro (Severe acute respiratory syndrome coronavirus 2, UniProt P0DTD1); assay: 3CLpro inhibition, IC50 (FRET substrate, 10 min pre-incubation); assay type: biochemical
[3] = molecular target: T1, Papain; assay: Papain inactivation kinetics, two-step irreversible mechanism; assay type: biochemical; details: Papain 48nM, Z-FR-MCA 1.5µM, 100 mM sodium phosphate, 1 mM EDTA, pH 6.0; for KI (inactivation): read-out: Ki, Papain inactivation (Ki = k-3/k3)
Description: (§1) This is confirmed by kinetic analyses of the reaction of THIA-3 with Papain, used as a diagnostic method as previously reported. The kinetic constant values of the reaction of the ten THIA compounds with Papain, for the reaction paths shown below, are reported in Table S2.
Table S2. Values of the kinetic constants for Papain inactivation kinetics analyses by all THIA compounds obtained for a two-step irreversible mechanism (see below the reaction paths) as reported in the reference (31)
Conditions: Papain 48nM, substrate Z-FR-MCA 1.5µM. Buffer: 100 mM sodium phosphate, 1 mM EDTA, pH 6.0. The kinetic constants for the reaction are indicated in the scheme below.
Ki represents the relation: Ki = k-3/k3, which is the dissociation constant describing the binding affinity between the inhibitor and the enzyme. In contrast, the IC50 is the concentration of inhibitor required to reduce enzymatic activity to half of its uninhibited value. The IC50 is less precise than Ki and depends on measurement conditions and the mechanism of inhibition. […] It is noteworthy that kinetic constants for Papain inactivation by THIA compounds are consistent with a two-step irreversible mechanism.

[4] = Stability of THIA derivatives in organic solvents and buffers (LC-MS); assay type: physicochemical; details: for Stability of 10 mM stock solutions in DMSO stored at −20 °C: 10 mM in DMSO, freezer −20 °C, LC-MS
Method: We chose THIA-3 as a reference due to its simplicity in larger-scale synthesis to evaluate the stability of this class of compounds. […] In the Tris buffer, decomposition to 1,3-diphenylurea was very slow, with some decomposition only apparent after 12 h of incubation (Figure S1B). We also evaluated the stability of 10 mM stock solutions of the ten THIAs in DMSO stored in a freezer (−20 °C) by Liquid Chromatography Mass Spectrometry (LC-MS). […] DMSO is also considered a reagent, but we have not explored the decomposition of THIA compounds in DMSO further, as it falls outside the scope of this work.
Figure S1. (A) - Stability THIA-3 in DMSO with 1% H2O. (B)- Stability of THIA-3 in water,100 mM sodium phosphate, Tris buffer pH 7.4, with 1 to 40% ACN.
Figure S2. Stability of THIAs in dimethyl sulfoxide and stored at -20 °C

[5] = molecular target: SARS-CoV-2 PLpro (Severe acute respiratory syndrome coronavirus 2, UniProt P0DTD1); assay: biochemical
[6] = molecular target: T1, Papain; design: method as in PMID 21329361; details: cited from earlier work
[7] = molecular target: Bromelain (Ananas comosus, UniProt P14518); design: method as in PMID 33177555; details: cited from earlier work
Sequence of Bromelain (P14518 whole entry): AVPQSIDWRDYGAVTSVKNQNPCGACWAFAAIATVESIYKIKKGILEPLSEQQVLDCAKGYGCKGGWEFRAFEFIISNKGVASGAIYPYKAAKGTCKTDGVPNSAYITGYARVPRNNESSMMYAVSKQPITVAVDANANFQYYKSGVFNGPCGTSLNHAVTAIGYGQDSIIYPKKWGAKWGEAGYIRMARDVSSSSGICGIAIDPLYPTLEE

[8] = molecular target: T1, Papain; assay: Type of inhibition (time dependence, reversibility) on Papain; assay type: biochemical; details: reverted by reducing agents
Method: (§2) Initially, we identified the type of inhibition in each protease using THIA-3 as a reference compound for all the tested THIA derivatives. […] Due to the susceptibility of the THIA derivatives to reducing agents, such as Cys or DTT (Figure S4), the proteases Papain, Cathepsin L, 3CLpro, and PLpro were separately pre-activated by 5 mM DTT during 30 min, which was removed by gel filtration, forming stock solutions of the activated proteases, and then kept at −20 °C under an N2 atmosphere for future use.
as §1
(§3) Figure S3. […] The assay has been performed following the procedure described in Reference ACS Omega 6 (2021) 16584−16591. https://doi.org/10.1021/acsomega.1c01797.
Figure S4. Inhibition of Papain by THIA-3 and its reversibility by cysteine (Cys) as a reducing agent. Z-FR-MCA as substrate, Papain activity was assessed before and after pre-incubation with 5µM THIA-3 for 5 min, and then assayed after Cys addition (10 µM).

[9] = molecular target: T2, Cathepsin L (Homo sapiens, UniProt P07711); assay: Type of inhibition on Cathepsin L; assay type: biochemical
T2 construct: made in house; host or cells: Pichia pastoris
T2 sequence (P07711 114-333): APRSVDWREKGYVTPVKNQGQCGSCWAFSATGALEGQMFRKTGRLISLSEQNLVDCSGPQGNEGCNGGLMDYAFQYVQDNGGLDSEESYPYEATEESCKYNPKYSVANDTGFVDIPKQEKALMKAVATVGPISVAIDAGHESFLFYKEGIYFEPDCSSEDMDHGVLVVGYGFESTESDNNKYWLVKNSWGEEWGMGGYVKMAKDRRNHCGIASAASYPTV
Method: as §2

[10] = molecular target: 3CLpro (Severe acute respiratory syndrome coronavirus 2, UniProt P0DTD1); assay: Type of inhibition (time dependence, reversibility) on 3CLpro; assay type: biochemical, SARS-CoV-2; details: reverted by reducing agents
Method: as §2, §1, §3

[11] = molecular target: PLpro (Severe acute respiratory syndrome coronavirus 2, UniProt P0DTD1); assay: Type of inhibition (reversibility assay) on PLpro; assay type: biochemical, SARS-CoV-2
[12] = system: PLpro; details: noncovalent, binding to S4–S3 subsites; read-out: IC50 for inhibition of PLpro; cited from earlier work
[13] = IC50 for inhibition of 3CLpro, 30 °C, 10 min pre-incubation, 50 mM Tris, 1 mM EDTA, pH 7.5, Abz-[…](Dnp)-NH2, 3CLpro 27 nM
[14] = IC50 for inhibition of 3CLpro (bound), unit inferred

Structure (SMILES) | IC50 [1] | IC50 for inhibition of Papain [1] | IC50 [2, 13] [nM] | k3, Papain inactivation [3] [µM/s] | k4, Papain inactivation [3] [s⁻¹] | KI (inactivation) [3] [nM] | Stability of 10 mM stock solutions in DMSO stored at −20 °C [4] | IC50 [5] [nM] | other results
COc1ccc(-n2sc(=O)n(C3CCCCC3)c2=O)cc1 [THIA-8] | 2400 ± 100 nM | in the μM range | 190 ± 10 | 109.9 | 0.016 | 680 | the most resistant | 4200 ± 100 | 
COc1ccc(-n2sc(=O)n(-c3ccc(C)cc3)c2=O)cc1 [THIA-5] | 102 ± 3 nM |  | 90 ± 10 | 12.3 | 0.021 | 270 |  | 3900 ± 700 | 
Cc1ccc(-n2sc(=O)n(Cc3ccc(F)cc3)c2=O)cc1 [CCG-50014, 4-(4-fluorobenzyl)-2-p-tolyl-1,2,4-thiadiazolidine-3,5-dione] |  |  |  |  |  |  |  |  | Inhibition of Papain [6]: complete absence of papain inhibition; also recorded: failed to inhibit Papain
O=c1sn(-c2ccccc2)c(=O)n1Cc1ccccc1 [THIA-1] | 2160 ± 90 nM | in the μM range | 130 ± 10 | 19.9 | 0.013 | 260 | the most resistant | 25000 ± 3000 | 
COc1ccc(-n2sc(=O)n(-c3ccc(OC)cc3)c2=O)cc1 [THIA-6] | 10 ± 1 nM |  | 30 ± 10 | 14.5 | 0.019 | 270 |  | 12500 ± 900 | Fold higher Papain inhibitory potency than THIA-4 ([1]; ratio of Papain IC50 values): sevenfold; Fold increase in Papain inhibitory potency compared to THIA-8 ([1]; ratio of Papain IC50 values): 240 fold; IC50 ([2]; unit inferred): < 50 nM
COc1ccc(-n2sc(=O)n(Cc3ccccc3)c2=O)cc1 [THIA-2] | 1280 ± 70 nM | in the μM range | 120 ± 10 | 24.6 | 0.012 | 320 | the most resistant | 8300 ± 800 | 
Cc1ccc(-n2sc(=O)n(-c3ccccc3)c2=O)cc1 [THIA-9] | 110 ± 10 nM |  | 160 ± 80 | 14.5 | 0.024 | 340 |  | 10400 ± 400 | 
COc1ccc(-n2sc(=O)n(-c3ccc(Cl)cc3)c2=O)cc1 [THIA-7] | 130 ± 10 nM | in the nanomolar range | 10 ± 10 | 17.3 | 0.009 | 160 | the most resistant | 14400 ± 700 | IC50 [2, 14]: < 50 nM
COc1ccc(-n2sc(=O)n(-c3ccccc3)c2=O)cc1 [THIA-4] | 70 nM and 71 nM |  | 130 ± 10 | 4.9 | 0.015 | 80 |  | 7600 ± 900 | 
CC(C)C[C@H](NC(=O)[C@H]1O[C@@H]1C(=O)O)C(=O)NCCCCN=C(N)N (relative stereo) [E-64, L-trans-Epoxysuccinyl-leucylamido (4-guanidino)butane] |  |  |  |  |  |  |  |  | Inhibition of Bromelain [7]: poor inhibition
O=c1sn(-c2ccccc2)c(=O)n1-c1ccccc1 [THIA-3] | 140 ± 20 nM |  | 110 ± 10 | 19.7 | 0.008 | 170 |  | 8500 ± 200 | Type of inhibition of Papain [8]: covalent irreversible inhibition; also recorded: two-step covalent enzyme inactivation mechanism; Type of inhibition of Cathepsin L [9]: irreversible inhibition; Type of inhibition of 3CLpro [10]: covalent irreversible inhibition; also recorded: two-step covalent enzyme inactivation mechanism; Type of inhibition of PLpro [11]: reversible inhibition; Stability in DMSO with 1% water [4]: decomposed to 1,3-diphenylurea; Stability in acetonitrile (ACN) [4]: remained stable
O=c1sn(-c2ccc(F)cc2)c(=O)n1-c1ccccc1 [THIA-10] | 10 nM and 11 nM |  | 20 ± 10 | 13.7 | 0.022 | 310 | the most resistant; also recorded: THIA-10 No degradation detected | 10000 ± 1000 | IC50 [2, 14]: < 50 nM; Type of inhibition of Papain [8]: two-step covalent enzyme inactivation mechanism
